Tests used:
Format in all cases: cell-based, human
[1] = tested on: H1975 cells; settings: H1975, MTT
[2] = tested on: MCF-7 cells; experiment: MTT anti-proliferative assay, MCF-7; settings: Homo sapiens, MCF7, 72 h, read-out: Anti-proliferative activity IC50, MCF-7
[3] = tested on: HepG2 cells; experiment: MTT anti-proliferative assay, HepG2; settings: Homo sapiens, HepG2, 72 h, read-out: Anti-proliferative activity IC50, HepG2
[4] = tested on: A549 cells; experiment: cells; settings: Homo sapiens, A549, 72 h, read-out: Anti-proliferative activity IC50, A549

Row | Structure (SMILES) | inhibitory activity against H1975 cells (in words) [1] | IC50 [2] [µM] | IC50 [3] [µM] | IC50 [4] [µM]
1 | COc1cc2ncnc(Nc3ccc(F)c(Cl)c3)c2cc1NC(=O)N/N=C/c1ccc(N(C)C)cc1 [Compound 9, (E)-N-(4-((3-chloro-4-fluorophenyl)amino)-7-methoxyquinazolin-6-yl)-2-(4-(dimethylamino)benzylidene)hydrazine-1-carboxamide] | poorer cellular activity | 2.63 ± 0.16 | 0.72 ± 0.19 | 2.84 ± 0.22
2 | CN(C)c1ccc(/C=N/NC(=O)Nc2cc3c(Nc4ccc(F)c(Cl)c4)ncnc3cc2O[C@H]2CCOC2)cc1 [Compound 10, (S,E)-N-(4-((3-chloro-4-fluorophenyl)amino)-7-((tetrahydrofuran-3-yl)oxy)quinazolin-6-yl)-2-(4-(dimethylamino)benzylidene)hydrazine-1-carboxamide] | moderate inhibitory activity | 0.61 ± 0.12 | 0.14 ± 0.08 | 1.51 ± 0.13
3 | CCN(CC)c1ccc(/C=N/NC(=O)Nc2cc3c(Nc4ccc(F)c(Cl)c4)ncnc3cc2OC)cc1 [Compound 11, (E)-N-(4-((3-chloro-4-fluorophenyl)amino)-7-methoxyquinazolin-6-yl)-2-(4-(diethylamino)benzylidene)hydrazine-1-carboxamide] | – | 15.4 ± 1.14 | 11.5 ± 1.16 | 31.4 ± 2.12
4 | O=C(N/N=C/c1ccc(N2CCCC2)nc1)Nc1cc2c(Nc3ccc(F)c(Cl)c3)ncnc2cc1O[C@H]1CCOC1 [Compound 18, (S,E)-N-(4-((3-chloro-4-fluorophenyl)amino)-7-((tetrahydrofuran-3-yl)oxy)quinazolin-6-yl)-2-((6-(pyrrolidin-1-yl)pyridin-3-yl)methylene)hydrazine-1-carboxamide] | – | 12.4 ± 1.25 | 5.81 ± 0.61 | 19.2 ± 1.46
5 | COc1cc2ncnc(Nc3ccc(F)c(Cl)c3)c2cc1NC(=O)N/N=C/c1ccc(CN2CCCCC2)cc1 [Compound 22, (E)-N-(4-((3-chloro-4-fluorophenyl)amino)-7-methoxyquinazolin-6-yl)-2-(4-(piperidin-1-ylmethyl)benzylidene)hydrazine-1-carboxamide] | – | 31.1 ± 2.55 | 59.5 ± 4.75 | 24.2 ± 2.27
6 | COc1cc2ncnc(Nc3ccc(F)c(Cl)c3)c2cc1NC(=O)N/N=C/c1ccc(CN2CCOCC2)cc1 [Compound 23, (E)-N-(4-((3-chloro-4-fluorophenyl)amino)-7-methoxyquinazolin-6-yl)-2-(4-(morpholinomethyl)benzylidene)hydrazine-1-carboxamide] | – | > 100 | > 100 | > 100
7 | CCN(CC)Cc1ccc(/C=N/NC(=O)Nc2cc3c(Nc4ccc(F)c(Cl)c4)ncnc3cc2O[C@H]2CCOC2)cc1 [Compound 26, (S,E)-N-(4-((3-chloro-4-fluorophenyl)amino)-7-((tetrahydrofuran-3-yl)oxy)quinazolin-6-yl)-2-(4-((diethylamino)methyl)benzylidene)hydrazine-1-carboxamide] | – | 36.9 ± 3.54 | 53.6 ± 4.75 | 23.1 ± 1.54
8 | O=C(N/N=C/c1ccc(CN2CCCC2)cc1)Nc1cc2c(Nc3ccc(F)c(Cl)c3)ncnc2cc1O[C@H]1CCOC1 [Compound 27, (S,E)-N-(4-((3-chloro-4-fluorophenyl)amino)-7-((tetrahydrofuran-3-yl)oxy)quinazolin-6-yl)-2-(4-(pyrrolidin-1-ylmethyl)benzylidene)hydrazine-1-carboxamide] | – | > 100 | > 100 | > 100
9 | O=C(N/N=C/c1ccc(CN2CCCCC2)cc1)Nc1cc2c(Nc3ccc(F)c(Cl)c3)ncnc2cc1O[C@H]1CCOC1 [Compound 28, (S,E)-N-(4-((3-chloro-4-fluorophenyl)amino)-7-((tetrahydrofuran-3-yl)oxy)quinazolin-6-yl)-2-(4-(piperidin-1-ylmethyl)benzylidene)hydrazine-1-carboxamide] | – | 4.3 ± 0.63 | 3.13 ± 0.45 | 2.25 ± 0.32
10 | O=C(N/N=C/c1ccc(CN2CCOCC2)cc1)Nc1cc2c(Nc3ccc(F)c(Cl)c3)ncnc2cc1O[C@H]1CCOC1 [Compound 29, (S,E)-N-(4-((3-chloro-4-fluorophenyl)amino)-7-((tetrahydrofuran-3-yl)oxy)quinazolin-6-yl)-2-(4-(morpholinomethyl)benzylidene)hydrazine-1-carboxamide] | – | > 100 | > 100 | > 100
11 | CN1CCN(Cc2ccc(/C=N/NC(=O)Nc3cc4c(Nc5ccc(F)c(Cl)c5)ncnc4cc3O[C@H]3CCOC3)cc2)CC1 [Compound 30, (S,E)-N-(4-((3-chloro-4-fluorophenyl)amino)-7-((tetrahydrofuran-3-yl)oxy)quinazolin-6-yl)-2-(4-((4-methylpiperazin-1-yl)methyl)benzylidene)hydrazine-1-carboxamide] | – | 21 ± 1.68 | 17.5 ± 1.62 | 24.9 ± 1.66
12 | CCN(CC)CCCOc1ccc(/C=N/NC(=O)Nc2cc3c(Nc4ccc(F)c(Cl)c4)ncnc3cc2O[C@H]2CCOC2)cc1 [Compound 50, (S,E)-N-(4-((3-chloro-4-fluorophenyl)amino)-7-((tetrahydrofuran-3-yl)oxy)quinazolin-6-yl)-2-(4-(3-(diethylamino)propoxy)benzylidene)hydrazine-1-carboxamide] | – | 1.23 ± 0.37 | 1.08 ± 0.17 | 1.11 ± 0.14
13 | O=C(N/N=C/c1ccc(OCCCN2CCCC2)cc1)Nc1cc2c(Nc3ccc(F)c(Cl)c3)ncnc2cc1O[C@H]1CCOC1 [Compound 51, (S,E)-N-(4-((3-chloro-4-fluorophenyl)amino)-7-((tetrahydrofuran-3-yl)oxy)quinazolin-6-yl)-2-(4-(3-(pyrrolidin-1-yl)propoxy)benzylidene)hydrazine-1-carboxamide] | – | 28.5 ± 1.27 | 17 ± 1.04 | 33.8 ± 1.14
14 | O=C(N/N=C/c1ccc(OCCCN2CCCCC2)cc1)Nc1cc2c(Nc3ccc(F)c(Cl)c3)ncnc2cc1O[C@H]1CCOC1 [Compound 52, (S,E)-N-(4-((3-chloro-4-fluorophenyl)amino)-7-((tetrahydrofuran-3-yl)oxy)quinazolin-6-yl)-2-(4-(3-(piperidin-1-yl)propoxy)benzylidene)hydrazine-1-carboxamide] | – | 2.56 ± 0.46 | 2.28 ± 0.26 | 4.65 ± 0.39
15 | O=C(N/N=C/c1ccc(OCCCN2CCOCC2)cc1)Nc1cc2c(Nc3ccc(F)c(Cl)c3)ncnc2cc1O[C@H]1CCOC1 [Compound 53, (S,E)-N-(4-((3-chloro-4-fluorophenyl)amino)-7-((tetrahydrofuran-3-yl)oxy)quinazolin-6-yl)-2-(4-(3-morpholinopropoxy)benzylidene)hydrazine-1-carboxamide] | – | > 100 | > 100 | > 100
16 | CN1CCN(CCCOc2ccc(/C=N/NC(=O)Nc3cc4c(Nc5ccc(F)c(Cl)c5)ncnc4cc3O[C@H]3CCOC3)cc2)CC1 [Compound 54, (S,E)-N-(4-((3-chloro-4-fluorophenyl)amino)-7-((tetrahydrofuran-3-yl)oxy)quinazolin-6-yl)-2-(4-(3-(4-methylpiperazin-1-yl)propoxy)benzylidene)hydrazine-1-carboxamide] | – | 38.4 ± 1.26 | 41.2 ± 2.04 | 40 ± 2.14
